Test results reported in patent US20080311232A1, “Cooling Compounds” (Givaudan, SA, priority 2007, published 2008).

Assays:
Format in all cases: in vivo, human
panelist [1] = test: Application in toothpaste: toothgel brushed on a panelist's teeth, cooling perception; details: for cooling perception rated higher than the control: control = peppermint oil toothgel
Description: The materials were mixed in the toothgel, a piece of toothgel was put on a toothbrush and a panelist's teeth were brushed. The mouth was rinsed with water and the water spat out. […] The cooling perception lasted for 40 minutes.
The materials were mixed in the toothgel, a piece of toothgel was put on a toothbrush and a panelist's teeth were brushed. The mouth was rinsed with water and the water spat out. […] The cooling perception was rated 24% higher than the control and lasted for 70 minutes.
The materials were mixed in the toothgel, a piece of toothgel was put on a toothbrush and a panelist's teeth were brushed. The mouth was rinsed with water and the water spat out. […] The cooling perception was rated 18% higher than the control and lasted for 60 minutes.
The materials were mixed in the toothgel, a piece of toothgel was put on a toothbrush and a panelist's teeth were brushed. The mouth was rinsed with water and the water spat out. […] The cooling perception was rated 95% higher than the control and lasted for 65 minutes.
The materials were mixed in the toothgel, a piece of toothgel was put on a toothbrush and a panelist's teeth were brushed. The mouth was rinsed with water and the water spat out. […] The cooling perception was rated 100% higher than the control and lasted for 40 minutes.
The materials were mixed in the toothgel, a piece of toothgel was put on a toothbrush and a panelist's teeth were brushed. The mouth was rinsed with water and the water spat out. […] The cooling perception was rated 30% higher than the control and lasted for over 35 minutes.

panelist [2] = test: Application in chewing gum: 2 g gum chewed by a panelist for 20 minutes, cooling perception; details: for cooling perception rated higher than the control: control = peppermint oil gum
Description: The gum base, and half of the sorbitol were mixed, maltitol syrup was added and then mixed with the gum mass. The rest of the powdered ingredients (rest of the sorbitol, mannitol, ace-K, aspartame) were added and mixed for about 1 minute, at which point glycerine was added and the gum mass was mixed for about 5 minutes, to form the blank chewing gum mass. Peppermint oil was worked into the mass and a piece of the resulting gum (2 g) was chewed by a panelist for […] and spat out. […] The cooling perception lasted far 50 minutes.
The chemical in the peppermint oil was worked into the blank chewing gum mass from Example 12 a) and a piece of the resulting gum (2 g) was chewed by a panelist for 20 minutes and spat out. […] The cooling perception was rated 43% higher than the control and lasted for over 60 minutes.
The chemical and peppermint oil was worked into the blank chewing gum mass from Example 12 a) and a piece of the resulting gum (2 g) was chewed by a panelist for 20 minutes and spat out. […] The cooling perception was rated 40% higher than the control and lasts for over 60 minutes.
The chemical in the peppermint oil was worked into the blank chewing gum mass from Example 12 a) and a piece of the resulting gum (2 g) was chewed by a panelist for 20 minutes and spat out. […] The cooling perception was rated 27% higher than the control and lasted for over 60 minutes.

panelists = test: Cooling intensity: panelists taste aqueous solutions, compared with menthol at 2 ppm; details: tasted by small group of panelists
[3] = toothgel: 0.10 g of 1% solution of compound in peppermint oil + 0.40 g peppermint oil
[4] = chewing gum: 0.50 g of 1% solution of compound in peppermint oil
[5] = toothgel: 0.50 g of 1% solution of compound in peppermint oil
[6] = toothgel: 0.05 g of 1% solution of compound in peppermint oil + 0.45 g peppermint oil
[7] = chewing gum: 0.05 g of 1% solution of compound in peppermint oil + 0.45 g peppermint oil
[8] = toothgel: 0.025 g compound + 0.50 g peppermint oil

`O=C(O)CCC(=O)O[C@H]1C[C@@H]2CC[C@H]1C2` [Example 3, 4-((1S,2S,4R)-bicyclo[2.2.1]heptan-2-yloxy)-4-oxobutanoic acid] was tested, and the cooling sensation felt (panelist [1]; [3]) was “intense cooling sensation”, the “duration of cooling perception” value (panelist [1]; [3]) was 70 min and the “cooling perception rated higher than the control” value (panelist [1]; [3]) was 24%. The cooling sensation felt (panelist [2]; [4]) was “cooling sensation”, the “duration of cooling perception” value (panelist [2]; [4]) was “over 60 minutes” and the “cooling perception rated higher than the control” value (panelist [2]; [4]) was 43%.

In the case of `CCNC(=O)C1CC(C)CCC1C(C)C` (centres unmarked) [WS-3, N-ethyl p-menthanecarboxamide, reference compound], the “Concentration with a cooling intensity similar to or slightly higher than that of a solution of menthol at 2 ppm” value (“Concentration” for short) (panelists) is reported as 1.5 ppm.

With `CCOC(=O)CC(=O)O[C@@H]1C2(C)CCC(C2)C1(C)C` (stereo partly drawn) [Example 6, Ethyl (2R)-1,3,3-trimethylbicyclo[2.2.1]heptan-2-yl malonate] the “Concentration” value (panelists) was 0.10 ppm, the cooling sensation felt (panelist [1]; [3]) was “intense cooling sensation” and the “duration of cooling perception” value (panelist [1]; [3]) was 60 min. For the same molecule, the “cooling perception rated higher than the control” value (panelist [1]; [3]) was 18%, the cooling sensation felt (panelist [1]; [5]) was “intense cooling sensation” and the “duration of cooling perception” value (panelist [1]; [5]) was 65 min. The “cooling perception rated higher than the control” value (panelist [1]; [5]) was 95%, the cooling sensation felt (panelist [2]; [4]) was “cooling sensation” and the “duration of cooling perception” value (panelist [2]; [4]) was “over 60 minutes”. For the same molecule, the “cooling perception rated higher than the control” value (panelist [2]; [4]) was 27%.

In the case of `CC1(C)[C@H]2CC[C@](C)(C2)[C@H]1OC(=O)CCC(=O)O` [Example 9, 4-oxo-4-((1R,2R,4S)-1,3,3-trimethylbicyclo[2.2.1]heptan-2-yloxy)butanoic acid], the “Concentration” value (panelists) is reported as 0.10 ppm.

In the case of `CC1(C)[C@@H]2CC[C@@]1(C)[C@H](OC(=O)CCC(=O)O)C2` [Example 4, 4-oxo-4-((1R,2R,4R)-1,7,7-trimethylbicyclo[2.2.1]heptan-2-yloxy)butanoic acid], the “Concentration” value (panelists) is reported as 0.001 ppm, the cooling sensation felt (panelist [1]; [6]) is reported as “intense cooling sensation” and the “duration of cooling perception” value (panelist [1]; [6]) is reported as 40 min. For the same molecule, the “cooling perception rated higher than the control” value (panelist [1]; [6]) was 100%, the cooling sensation felt (panelist [2]; [7]) was “cooling sensation” and the “duration of cooling perception” value (panelist [2]; [7]) was “over 60 minutes”. For the same molecule, the “cooling perception rated higher than the control” value (panelist [2]; [7]) was 40%.

In the case of `C[C@@H](N)C(=O)OC1C2(C)CCC(C2)C1(C)C` (stereo partly drawn) [Example 8, D-alanine fenchyl ester], the “Concentration” value (panelists) is reported as 0.20 ppm, the cooling sensation felt (panelist [1]; [8]) is reported as “intense cooling sensation” and the “duration of cooling perception” value (panelist [1]; [8]) is reported as “over 35 minutes”. For the same molecule, the “cooling perception rated higher than the control” value (panelist [1]; [8]) was 30%.

`CC(C)[C@@H]1CC[C@@H](C)C[C@H]1O` [l-Menthol, reference compound] was tested, and the “Concentration” value (panelists) was 2.0 ppm.

With `CC1(C)[C@H]2CC[C@]1(C)[C@H](OC(=O)CCC(=O)O)C2` [Example 1, 4-oxo-4-(1S,2R,4S)1,7,7-trimethylbicyclo[2.2.1]heptan-2-yloxybutanoic acid] the “Concentration” value (panelists) was 0.003 ppm.

With `CN(C)C(=O)CCC(=O)O[C@@H]1C2(C)CCC(C2)C1(C)C` (stereo partly drawn) [Example 7, (2R)-1,3,3-trimethylbicyclo[2.2.1]heptan-2-yl 4-(dimethylamino)-4-oxobutanoate] the “Concentration” value (panelists) was 0.002 ppm.
